Data from patent publication US5214047A, “Tetracyclic quinazoline derivatives, effective as antiarrythmic agents” (priority 1987, dated 1993).
Counter-ions that a name gives are not always drawn. Like-named read-outs stand apart in the source and are kept apart here.

Tested on: QT interval
Assay: QT interval prolongation (ECG, class III action) in anesthetized guinea pigs
Format: in vivo, Pirbright white guinea pigs
Settings: for ED (20%): Cavia porcellus, read-out: Prolongation of the QT interval ED20%; for Potency relative to that of d-sotalol = 1.0: QT prolongation, ED20%
Description: The action of the novel substances has been tested as follows:
The experimental animals used were male and female Pirbright white guinea pigs weighing 300-500 g. 1.5 g/kg urethane i.p. were used for anesthesia. The substances were administered intravenously. The extremity lead II was recorded to measure the ECG conduction times and the heart rate. The measured variables were the QT and PQ intervals and the heart rate. 4-6 animals were used for each dose. The criterion for a class III action was an increase in the QT interval compared with the values before administration of the substance. A PQ increase and a large decrease in the heart rate were used as exclusion criteria. The ED20% is calculated from the linear relation between log dose (mg/kg) of the substance and the relative prolongation of the QT interval (Δ%).

[1] = guinea pigs, urethane anesthesia, intravenous, dose for 20% QT prolongation calculated from log dose (mg/kg) vs relative QT prolongation

Compound	ED (20%) [1]	Potency relative to that of d-sotalol = 1.0 (guinea pigs, intravenous)	ED (20%) (iv)
Cc1ccc(C23CCCN2c2ccccc2C2=NCCN23)cc1 (stereo not drawn) [Example 1, 2,3,5,6,7,8-Hexahydro-5-(4-methylphenyl)imidazo[1,2-c]pyrrolo[1,2-a]quinazoline]	1 mg/kg	3.6	–
Clc1ccc(C23CCCN2c2ccccc2C2=NCCN23)cc1 (stereo not drawn) [Example 2]	–	3.3	1.1 mg/kg
Fc1ccc(C23CCCN2c2ccccc2C2=NCCN23)cc1 (stereo not drawn) [Example 4, 5-(4-Fluorophenyl)-2,3,5,6,7,8-hexahydroimidazo[1,2-c]pyrrolo[1,2-a]quinazoline]	0.21 mg/kg	17	–
COc1cc2c(cc1OC)N1CCCC1(c1ccccc1)N1CCN=C21 (stereo not drawn) [Example 5, 2,3,5,6,7,8-Hexahydro-11,12-dimethoxy-5-phenylimidazo[1,2-c]pyrrolo[1,2-a]quinazoline]	1 mg/kg	3.5	–
COc1ccc(C23CCCN2c2ccccc2C2=NCCN23)cc1 (stereo not drawn) [Example 8]	0.61 mg/kg	6.0	–
Clc1ccc(C23CCCN2c2ccccc2C2=NCCN23)cc1Cl (stereo not drawn) [Example 9]	1.5 mg/kg	2.4	–
Clc1ccc2c(c1)N1CCCC1(c1ccccc1)N1CCN=C21 (stereo not drawn) [Example 11, 11-Chloro-2,3,5,6,7,8-hexahydro-5-phenylimidazo[1,2-c]pyrrolo[1,2-a]quinazoline]	0.4 mg/kg	9.0	–
Clc1ccc(C23CCCN2c2ccccc2C2=NCCN23)c(Cl)c1 (stereo not drawn) [Example 13, 5-(2,4-Dichlorophenyl)-2,3,5,6,7,8-hexahydroimidazo[1,2-c]pyrrolo[1,2-a]quinazoline hydrochloride]	0.99 mg/kg	3.7	–
Fc1ccc(C23CCCN2c2cc(Cl)ccc2C2=NCCN23)cc1 (stereo not drawn) [Example 15, 11-Chloro-5-(4-fluorophenyl)-2,3,5,6,7,8-hexahydroimidazo[1,2-c]pyrrolo[1,2-a]quinazoline hydrochloride]	0.43 mg/kg	8.5	–
Clc1ccc(C23CCCN2c2ccccc2C2=NCCN23)s1 (stereo not drawn) [Example 19, 5-(2-(5-Chlorothienyl))-2,3,5,6,7,8-hexahydroimidazo[1,2-c]pyrrolo[1,2-a]quinazoline hydrochloride]	1.4 mg/kg	2.6	–
O=[N+]([O-])c1ccc(C23CCCN2c2ccccc2C2=NCCN23)cc1 (stereo not drawn) [Example 21, 2,3,5,6,7,8-Hexahydro-5-(4-nitrophenyl)imidazo[1,2-c]pyrrolo[1,2-a]quinazoline hydrochloride]	0.46 mg/kg	8.0	–
c1ccc(C23CCCN2c2ccccc2C2=NC4CCCCC4N23)cc1 (stereo not drawn) [Example 22, 2,3,5,6,7,8-Hexahydro-2,3-tetramethylene-5-phenylimidazo[1,2-c]pyrrolo[1,2-a]quinazoline]	–	6.5	0.56 mg/kg
CC1CN=C2c3ccccc3N3CCCC3(c3ccccc3)N21 (stereo not drawn) [Example 24, hydrochloride]	0.29 mg/kg	12	–
c1csc(C23CCCN2c2ccccc2C2=NCCCN23)c1 (stereo not drawn) [Example 25]	0.58 mg/kg	6.2	–
Clc1ccc(C23CCCN2c2ccccc2C2=NCCCN23)cc1 (stereo not drawn) [Example 26, 6-(4-Chlorophenyl)-2,3,6,7,8,9-hexahydro-2H-pyrimido[1,2-c]pyrrolo[1,2-a]quinazoline]	1.5 mg/kg	2.4	–
Fc1ccc(C23CCCN2c2ccccc2C2=NCCCN23)cc1 (stereo not drawn) [Example 27, 6-(4-Fluorophenyl)-2,3,5,6,7,8-hexahydro-2H-pyrimido[1,2-c]pyrrolo[1,2-a]quinazoline]	0.42 mg/kg	8.7	–
Clc1ccc(C23CCCN2c2ccccc2C2=NCCCN23)cc1Cl (stereo not drawn) [Example 28, 6-(3,4-Dichlorophenyl)-2,3,5,6,7,8-hexahydro-2H-pyrimido[1,2-c]pyrrolo[1,2-a]quinazoline]	0.94 mg/kg	3.9	–
Clc1ccc2c(c1)C1=NCCCN1C1(c3ccccc3)CCCN21 (stereo not drawn) [Example 29, 13-Chloro-2,3,5,6,7,8-hexahydro-6-phenyl-2H-pyrimido[1,2-c]pyrrolo[1,2-a]quinazoline hydrochloride]	0.55 mg/kg	6.6	–

Compound	ED (20%) [1]	Potency relative to that of d-sotalol = 1.0 (guinea pigs, intravenous)	ED (20%) (iv)
Fc1ccc(C23CCCN2c2ccc(Cl)cc2C2=NCCCN23)cc1 (stereo not drawn) [Example 30, 13-Chloro-6-(4-fluorophenyl)-2,3,5,6,7,8-hexahydro-2H-pyrimido[1,2-c]pyrrolo[1,2-a]quinazoline]	1 mg/kg	3.6	–
O=[N+]([O-])c1cccc(C23CCCN2c2ccccc2C2=NCCCN23)c1 (stereo not drawn) [Example 31, 2,3,5,6,7,8-Hexahydro-6-(3-nitrophenyl)-2H-pyrimido[1,2-c]pyrrolo[1,2-a]quinazoline]	0.56 mg/kg	6.5	–
Clc1ccc(C23CCCN2c2ccccc2C2=NCCCN23)s1 (stereo not drawn) [Example 33, 6-(2-(5-Chlorothienyl))-2,3,5,6,7,8-hexahydro-2H-pyrimido[1,2-c]pyrrolo[1,2-a]quinazoline]	1.5 mg/kg	2.4	–
O=[N+]([O-])c1ccc(C23CCCN2c2ccccc2C2=NCCCN23)cc1 (stereo not drawn) [Example 34, 2,3,5,6,7,8-Hexahydro-6-(4-nitrophenyl)-2H-pyrimido[1,2-c]pyrrolo[1,2-a]quinazoline]	0.61 mg/kg	6.0	–
COc1ccc(C23CCCN2c2ccccc2C2=NCCCN23)cc1 (stereo not drawn) [Example 35, 2,3,5,6,7,8-Hexahydro-6-(4-methoxyphenyl)-2H-pyrimido[1,2-c]pyrrolo[1,2-a]quinazoline hydrochloride]	0.63 mg/kg	5.7	–
Clc1ccc2c(c1)N1CCCC1(c1ccccc1)N1CCCN=C21 (stereo not drawn) [Example 37, 12-Chloro-2,3,5,6,7,8-hexahydro-6-phenyl-2H-pyrimido[1,2-c]pyrrolo[1,2-a]quinazoline hydrochloride]	0.69 mg/kg	5.3	–
Fc1ccc(C23CCCN2c2cc(Cl)ccc2C2=NCCCN23)cc1 (stereo not drawn) [Example 38, 2-Chloro-6-(4-fluorophenyl)-2,3,5,6,7,8-hexahydro-2H-pyrimido[1,2-c]pyrrolo[1,2-a]quinazoline hydrochloride]	0.83 mg/kg	4.4	–
CC1(C)CN=C2c3ccccc3N3CCCC3(c3ccccc3)N2C1 (stereo not drawn) [Example 41, 2,3,5,6,7,8-Hexahydro-3,3-dimethyl-6-phenyl-2H-pyrimido[1,2-c]pyrrolo[1,2-a]quinazoline hydrochloride]	0.46 mg/kg	7.8	–
CC1(C)CN=C2c3ccccc3N3CCCC3(c3ccc([N+](=O)[O-])cc3)N2C1 (stereo not drawn) [Example 42, 2,3,5,6,7,8-Hexahydro-3,3-dimethyl-6-(4-nitrophenyl)-2H-pyrimido[1,2-c]pyrrolo[1,2-a]quinazoline hydrochloride]	0.78 mg/kg	4.7	–
CC1(C)CN=C2c3ccccc3N3CCCC3(c3ccccc3)N21 (stereo not drawn) [Example 43, 2,3,5,6,7,8-Hexahydro-3,3-dimethyl-5-phenylimidazo[1,2-c]pyrrolo[1,2-a]quinazoline hydrochloride]	0.6 mg/kg	6.1	–
CC1(C)CCN=C2c3ccccc3N3CCCC3(c3ccccc3)N21 (stereo not drawn) [Example 44, 2,3,5,6,7,8-Hexahydro-4,4-dimethyl-6-phenyl-2H-pyrimido[1,2-c]pyrrolo[1,2-a]quinazoline hydrochloride]	0.49 mg/kg	7.4	–
CC1(C)CN=C2c3ccccc3N3CCCC3(c3ccc(F)cc3)N21 (stereo not drawn) [Example 45, hydrochloride]	0.59 mg/kg	6.2	–
CC1(C)CN=C2c3ccccc3N3CCCC3(c3ccc([N+](=O)[O-])cc3)N21 (stereo not drawn) [Example 46, 2,3,5,6,7,8-Hexahydro-3,3-dimethyl-5-(4-nitrophenyl)imidazo[1,2-c]pyrrolo[1,2-a]quinazoline hydrochloride]	0.55 mg/kg	6.7	–
CC1(C)CCN=C2c3ccccc3N3CCCC3(c3ccc([N+](=O)[O-])cc3)N21 (stereo not drawn) [Example 47, 2,3,5,6,7,8-Hexahydro-4,4-dimethyl-6-(4-nitrophenyl)-2H-pyrimido[1,2-c]pyrrolo[1,2-a]quinazoline hydrochloride]	0.52 mg/kg	7.0	–
CC1CN=C2c3ccccc3N3CCCC3(c3ccc([N+](=O)[O-])cc3)N21 (stereo not drawn) [Example 48, 2,3,5,6,7,8-Hexahydro-3-methyl-5-(4-nitrophenyl)imidazo[1,2-c]pyrrolo[1,2-a]quinazoline hydrochloride]	0.31 mg/kg	11.8	–
c1ccc(C23CCCN2c2ccccc2C2=NCCCN23)cc1 (stereo not drawn) [Example 49, 2,3,5,6,7,8-Hexahydro-6-phenyl-2H-pyrimido[1,2-c]pyrrolo[1,2-a]quinazoline hydrochloride]	0.32 mg/kg	11	–
c1ccc(C23CCCN2c2ccccc2C2=NCCN23)cc1 (stereo not drawn) [Example 50, hydrochloride]	0.25 mg/kg	15	–
CS(=O)(=O)Oc1ccc(C23CCCN2c2ccccc2C2=NCCN23)cc1 (stereo not drawn) [Example 53, hydrochloride]	1 mg/kg	3.6	–
